Laboratory results taken from US20040146519A1, “Inducing cellular immune responses to carcinoembryonic antigen using peptide and nucleic acid compositions” (priority 2002, published 2004).
Like-named read-outs stand apart in the source and are kept apart here. Where no end group is shown, it is not given here.

Tests used:
[1] = target: HLA-A*0202 (Homo sapiens, UniProt P04439, D140Y/D185E/D98H/E176V/E277Q/G131W/G231S/I119L/I121R/I166T/I218V/L180W/L300P/L318F/N151K/N90K/P208A/P217A/Q67R/Q86G/Q94H/R138H/R169H/T345S); test: HLA class I binding assay, purified HLA-A*0202; conditions: Table XXII, binding affinity
[2] = target: HLA-A*0203 (Homo sapiens, UniProt P04439, A173T/D140Y/D185E/D98H/E277Q/G131W/G231S/I119V/I121R/I166T/I218V/L180W/L300P/L318F/N151K/N90K/P208A/P217A/Q86G/Q94H/R138H/R169H/T345S); test: HLA class I binding assay, purified HLA-A*0203; conditions: Table XXII, binding affinity
[3] = target: HLA-A*6802 (Homo sapiens, UniProt P04439, A269V/D140Y/D185E/E176V/E277Q/E87N/F33Y/G231S/I121R/I166T/I218V/L180W/L300P/L318F/N151K/P208A/P217A/Q86R/R138H/R169H/S129P/T345S/V36M); test: HLA class I binding assay, purified HLA-A*6802; conditions: Table XXII, binding affinity
[4] = target: HLA-DRB1*0401 (Homo sapiens, UniProt P01903+P01911, A100K/A169T/F76Y/I96L/K127E/L162R/M171V/N62H/P40V/Q125Y/R42H/S133A/S149N/S66Y/V115G/V209L/W38E); test: HLA class II binding assay, DRB1*0401 (DR4w4)
[5] = target: HLA-A*6801 (Homo sapiens, UniProt P04439, A269V/D185E/E176V/E277Q/E87N/F33Y/G231S/I121M/I166T/I218V/L180W/L300P/L318F/N151K/P208A/P217A/Q86R/R169H/T345S); test: HLA class I binding assay, purified HLA-A*6801; conditions: Table XXIII, binding affinity
[6] = target: HLA-A*3301 (Homo sapiens, UniProt P04439, A270S/D185E/E176V/E277Q/E87N/F33T/G231S/H175R/I121M/I218V/I322F/K168Q/K210R/L300P/L318F/M331R/P217A/Q86R/Q94H/R138Q/T323A/T345S/T97I/V358M/Y195H); test: HLA class I binding assay, purified HLA-A*3301; conditions: Table XXIII, binding affinity
[7] = target: HLA-A*3101 (Homo sapiens, UniProt P04439, A270S/D185E/E176V/E277Q/F33T/G231S/G80R/H175R/I121M/I218V/I322F/K168Q/L300P/L318F/M331R/P217A/Q94H/R138Q/T323A/T345S/T97I/V358M); test: HLA class I binding assay, purified HLA-A*3101; conditions: Table XXIII, binding affinity
[8] = target: HLA-A*1101 (Homo sapiens, UniProt P04439, A114D/D185E/E176A/F33Y/L180Q/S129P/T187R); test: HLA class I binding assay, purified HLA-A*1101; conditions: Table XXIII, binding affinity
[9] = target: HLA-A*0206 (Homo sapiens, UniProt P04439, D140Y/D185E/D98H/E176V/E277Q/F33Y/G131W/G231S/I119V/I121R/I166T/I218V/L300P/L318F/N151K/N90K/P208A/P217A/Q86G/Q94H/R138H/R169H/T345S); test: HLA class I binding assay, purified HLA-A*0206; conditions: Table XXII, binding affinity
[10] = target: HLA-A*0201 (Homo sapiens, UniProt P04439, D140Y/D185E/D98H/E176V/E277Q/G131W/G231S/I119V/I121R/I166T/I218V/L300P/L318F/N151K/N90K/P208A/P217A/Q86G/Q94H/R138H/R169H/T345S); test: HLA class I binding assay, purified HLA-A*0201; conditions: Table XXII, binding affinity
[11] = HLA Class II motif and supermotif-bearing epitopes

Compound	IC50 [1] [nM]	IC50 [3] [nM]	IC50 [5] [nM]	IC50 [6] [nM]	IC50 [7] [nM]	also measured
CC[C@H](C)[C@H](NC(=O)[C@H](CC(C)C)NC(=O)[C@@H](N)CCC(N)=O)C(=O)NCC(=O)N[C@@H](Cc1ccc(O)cc1)C(=O)N[C@H](C(=O)N[C@H](C(=O)NCC(=O)N[C@H](C(=O)O)C(C)C)[C@@H](C)CC)C(C)C [CEA.78L2V9]	5.9	2.3	–	–	–	IC50 [2]: 2.3 nM
CC[C@H](C)[C@H](NC(=O)[C@H](CC(N)=O)NC(=O)[C@@H](N)CCC(N)=O)C(=O)N[C@H](C(=O)N[C@@H](CCC(N)=O)C(=O)N[C@@H](CC(N)=O)C(=O)N[C@@H](CC(=O)O)C(=O)N[C@H](C(=O)NCC(=O)N[C@@H](Cc1ccccc1)C(=O)N[C@@H](Cc1ccc(O)cc1)C(=O)N[C@H](C(=O)N[C@@H](CC(C)C)C(=O)N[C@@H](Cc1c[nH]cn1)C(=O)N[C@H](C(=O)O)C(C)C)[C@@H](C)O)[C@@H](C)O)[C@@H](C)CC [CEA.110]	–	–	–	–	–	IC50 [4, 11]: > 8180 nM
CC(C)C[C@H](NC(=O)[C@H](CCCNC(=N)N)NC(=O)[C@@H]1CCCN1C(=O)[C@H](CO)NC(=O)[C@@H](NC(=O)[C@@H]1CCCN1C(=O)[C@H](CC(C)C)NC(=O)[C@H](CO)NC(=O)[C@H](CCC(N)=O)NC(=O)[C@H](CC(N)=O)NC(=O)[C@H](CC(N)=O)NC(=O)[C@@H](NC(=O)[C@H](Cc1c[nH]c2ccccc12)NC(=O)[C@H](Cc1c[nH]c2ccccc12)NC(=O)[C@@H](N)CC(C)C)C(C)C)C(C)C)C(=O)O [CEA.177]	–	–	–	–	–	IC50 ([4]; DR supertype primary binding, read-out: DR4w4 binding affinity): 1550 nM
CC(C)C[C@H](NC(=O)[C@H](CC(C)C)NC(=O)[C@@H](NC(=O)[C@H](CC(C)C)NC(=O)[C@@H](NC(=O)[C@H](CCCNC(=N)N)NC(=O)[C@H](CC(N)=O)NC(=O)[C@H](CC(=O)O)NC(=O)[C@H](CC(N)=O)NC(=O)[C@H](CO)NC(=O)[C@H](CC(C)C)NC(=O)[C@H](CCC(N)=O)NC(=O)[C@H](CC(C)C)NC(=O)[C@@H](N)CCCNC(=N)N)[C@@H](C)O)[C@@H](C)O)C(=O)N[C@@H](CO)C(=O)O [CEA.368]	–	–	–	–	–	IC50 [4, 11]: > 8180 nM
CC(C)C[C@H](NC(=O)[C@H](CC(C)C)NC(=O)[C@@H](NC(=O)[C@H](CC(C)C)NC(=O)[C@@H](NC(=O)[C@@H](N)CCCNC(=N)N)C(C)C)[C@@H](C)O)C(=O)N[C@@H](CO)C(=O)N[C@H](C(=O)N[C@H](C(=O)N[C@@H](CCCCN)C(=O)O)[C@@H](C)O)C(C)C [CEA.376.V2K10]	–	–	5710	> 10000	164	–
TVSPLNTSYK [CEA.241.V2K10]	–	–	7.3	> 10000	> 10000	IC50 [8]: 6 nM

More lines, main results first:

IC50 [1] [nM]	IC50 [3] [nM]	IC50 [5] [nM]	IC50 [6] [nM]	IC50 [7] [nM]	Compound	also measured
–	–	6.7	> 10000	3670	CC(C)[C@H](NC(=O)[C@@H](N)[C@@H](C)O)C(=O)N[C@@H](CO)C(=O)N1CCC[C@H]1C(=O)N[C@@H](CO)C(=O)N[C@@H](Cc1ccc(O)cc1)C(=O)N[C@H](C(=O)N[C@@H](Cc1ccc(O)cc1)C(=O)N[C@@H](Cc1ccc(O)cc1)C(=O)N[C@@H](CCCCN)C(=O)O)[C@@H](C)O [CEA.419.V2K10]	IC50 [8]: 43 nM
–	–	22	4330	720	CC[C@H](C)[C@H](N)C(=O)N[C@H](C(=O)N1CCC[C@H]1C(=O)N[C@@H](CO)C(=O)N[C@@H](Cc1ccc(O)cc1)C(=O)N[C@H](C(=O)N[C@@H](Cc1ccc(O)cc1)C(=O)N[C@@H](Cc1ccc(O)cc1)C(=O)N[C@@H](CCCCN)C(=O)O)[C@@H](C)O)C(C)C [CEA.420.V2K9]	–
–	–	2350	> 10000	234	CC(C)C[C@H](NC(=O)[C@@H](NC(=O)[C@@H](N)CCCNC(=N)N)C(C)C)C(=O)N[C@H](C(=O)N[C@@H](CC(C)C)C(=O)N[C@@H](Cc1ccccc1)C(=O)N[C@@H](CC(N)=O)C(=O)N[C@H](C(=O)N[C@H](C(=O)N[C@@H](CCCCN)C(=O)O)[C@@H](C)O)C(C)C)[C@@H](C)O [CEA.554.V42K10]	IC50 [8]: 32 nM
24	3480	–	–	–	CC[C@H](C)[C@H](NC(=O)CNC(=O)[C@H](CS)NC(=O)[C@H](CC(C)C)NC(=O)[C@@H](N)Cc1ccc(O)cc1)C(=O)N[C@@H](CCC(N)=O)C(=O)N[C@@H](CC(N)=O)C(=O)N[C@@H](CO)C(=O)N[C@H](C(=O)O)C(C)C [CEA.569L2]	IC50 [9]: 31 nM
–	–	5.3	> 10000	> 10000	CC(C)C[C@H](NC(=O)[C@H](CC(N)=O)NC(=O)[C@H](CO)NC(=O)[C@@H](NC(=O)[C@@H](N)Cc1ccccc1)C(C)C)C(=O)N[C@@H](C)C(=O)N[C@H](C(=O)NCC(=O)N[C@@H](CCCCN)C(=O)O)[C@@H](C)O [CEA.656.K9]	IC50 [8]: 207 nM
63	102	–	–	–	CC[C@H](C)[C@H](NC(=O)CNC(=O)[C@@H](NC(=O)[C@H](CC(C)C)NC(=O)[C@H](C)N)C(C)C)C(=O)N[C@@H](CCSC)C(=O)N[C@H](C(=O)NCC(=O)N[C@H](C(=O)O)C(C)C)[C@@H](C)CC [CEA.687L2]	IC50 [10]: 10 nM; IC50 [2]: 31 nM; IC50 [9]: 100 nM
205	500	–	–	–	CC[C@H](C)[C@H](NC(=O)CN)C(=O)N[C@@H](CCSC)C(=O)N[C@H](C(=O)NCC(=O)N[C@H](C(=O)N[C@@H](CC(C)C)C(=O)N[C@H](C(=O)NCC(=O)N[C@H](C(=O)O)C(C)C)C(C)C)C(C)C)[C@@H](C)CC [CEA.690]	IC50 [10]: 64 nM; IC50 [2]: 31 nM; IC50 [9]: 142 nM
8	160	–	–	–	CC[C@H](C)[C@H](N)C(=O)N[C@@H](CC(C)C)C(=O)N[C@H](C(=O)NCC(=O)N[C@H](C(=O)N[C@@H](CC(C)C)C(=O)N[C@H](C(=O)NCC(=O)N[C@H](C(=O)O)C(C)C)C(C)C)C(C)C)[C@@H](C)CC [CEA.691L2]	IC50 [10]: 22 nM; IC50 [2]: 3.2 nM
